Test results published in BindingDB's records for doi:10.1021/acsmedchemlett.6b00145 (Amgen, 2016).

How the values were obtained:
Hexokinase-4 [1] = target: T1, Hexokinase-4 (Homo sapiens, UniProt P35557); assay: Activation of human recombinant glucokinase using 5 mM glucose as substrate in presence of NAD+ by glucose 6-phosphate dehydrogenase coupled assay
T1 sequence (P35557 whole entry): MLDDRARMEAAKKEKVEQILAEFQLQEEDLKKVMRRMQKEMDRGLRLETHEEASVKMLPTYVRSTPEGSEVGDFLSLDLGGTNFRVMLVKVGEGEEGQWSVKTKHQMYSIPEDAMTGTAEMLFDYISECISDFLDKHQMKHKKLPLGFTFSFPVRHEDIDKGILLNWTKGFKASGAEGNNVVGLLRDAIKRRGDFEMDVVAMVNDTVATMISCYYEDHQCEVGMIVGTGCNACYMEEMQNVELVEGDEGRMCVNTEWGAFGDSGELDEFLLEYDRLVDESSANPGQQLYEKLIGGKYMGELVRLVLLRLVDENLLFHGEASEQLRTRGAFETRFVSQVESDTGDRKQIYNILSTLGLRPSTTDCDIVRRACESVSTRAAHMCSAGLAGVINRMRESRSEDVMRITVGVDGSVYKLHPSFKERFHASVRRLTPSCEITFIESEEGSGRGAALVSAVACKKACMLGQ

Hexokinase-4 [2] = target: T1, Hexokinase-4; assay: Activation of human recombinant glucokinase using 5 mM glucose as substrate in presence of NAD+ and 4% HSA by glucose 6-phosphate dehydrogenase coupled assay

Row | EC50 (Hexokinase-4 [1]) [µM] | EC50 (Hexokinase-4 [2]) [µM] | Structure (SMILES)
1 | 0.097 | 0.19 | CNC(=O)Nc1cc(Oc2cncc(C)c2)c([C@@H]2CC[C@@H](O)C2)cn1
2 | 0.13 | 0.17 | CNC(=O)Nc1cc(Oc2cncc(C)c2)c([C@H]2C[C@@H]2CO)cn1
3 | 0.94 | 0.92 | CNC(=O)Nc1cc(Oc2cncc(OC)c2)c([C@@H]2COCC[C@@H]2O)cn1
4 | 0.083 | 0.13 | CNC(=O)Nc1cc(Oc2cncc(C)c2)c([C@H]2C[C@@H]2C(C)(C)O)cn1
